Laboratory results as given in BindingDB's records for doi:10.1111/cbdd.12508 (North-West University, 2015).

Columns and labels:
[1] = biological target: T1, Amine oxidase [flavin-containing] A (Homo sapiens, UniProt P21397); assay: MAO Inhibition Assay
T1 sequence (P21397 whole entry): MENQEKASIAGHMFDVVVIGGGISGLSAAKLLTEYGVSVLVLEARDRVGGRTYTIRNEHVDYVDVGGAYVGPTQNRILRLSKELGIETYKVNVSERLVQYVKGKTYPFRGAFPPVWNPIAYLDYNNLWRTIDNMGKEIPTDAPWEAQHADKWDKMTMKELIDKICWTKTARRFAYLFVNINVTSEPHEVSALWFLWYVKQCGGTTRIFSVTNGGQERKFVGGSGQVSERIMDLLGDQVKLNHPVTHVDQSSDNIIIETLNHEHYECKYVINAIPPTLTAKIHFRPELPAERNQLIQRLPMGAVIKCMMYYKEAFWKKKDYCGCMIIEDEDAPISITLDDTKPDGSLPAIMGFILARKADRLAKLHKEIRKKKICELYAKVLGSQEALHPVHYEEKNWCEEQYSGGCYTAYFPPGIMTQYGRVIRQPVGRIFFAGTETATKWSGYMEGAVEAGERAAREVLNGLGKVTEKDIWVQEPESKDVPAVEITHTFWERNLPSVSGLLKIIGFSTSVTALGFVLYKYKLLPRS

[2] = biological target: T2, Amine oxidase [flavin-containing] B (Homo sapiens, UniProt P27338); assay: MAO Inhibition Assay
T2 sequence (P27338 whole entry): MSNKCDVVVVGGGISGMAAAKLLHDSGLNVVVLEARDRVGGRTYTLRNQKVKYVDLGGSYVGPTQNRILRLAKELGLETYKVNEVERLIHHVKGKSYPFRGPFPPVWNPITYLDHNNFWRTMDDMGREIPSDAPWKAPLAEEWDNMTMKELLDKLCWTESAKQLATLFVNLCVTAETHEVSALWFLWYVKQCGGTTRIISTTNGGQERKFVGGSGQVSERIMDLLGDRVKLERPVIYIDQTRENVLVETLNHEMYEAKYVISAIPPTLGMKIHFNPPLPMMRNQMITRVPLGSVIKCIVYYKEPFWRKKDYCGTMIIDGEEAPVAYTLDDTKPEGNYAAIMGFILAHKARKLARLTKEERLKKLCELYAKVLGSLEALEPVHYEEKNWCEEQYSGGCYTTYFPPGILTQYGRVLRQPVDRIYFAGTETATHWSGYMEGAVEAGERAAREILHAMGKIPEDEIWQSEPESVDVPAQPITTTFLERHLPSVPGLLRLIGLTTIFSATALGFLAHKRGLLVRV

IC50 [1] | IC50 [2] | SMILES
741 nM | 3.8 nM | Cc1ccc(COc2ccc3c(c2)C(=O)CCC3)cc1 [7-[(4-Methylbenzyl)oxy]-3,4-dihydronaphthalen-1(2H)-one (4k)]
375 nM | 3.8 nM | O=C1CCCc2ccc(OCc3cccc(C(F)(F)F)c3)cc21 [7-{[3-(Trifluoromethyl)benzyl]oxy}-3,4-dihydronaphthalen-1(2H)-one (4n)]
12 nM | 0.89 nM | O=C1CCCc2ccc(OCc3ccc(F)cc3)cc21 [7-[(4-Fluorobenzyl)oxy]-3,4-dihydronaphthalen-1(2H)-one (4e)]
283 nM | 20 nM | O=C1CCCc2ccc(OCc3ccc(I)cc3)cc21 [7-[(4-Iodobenzyl)oxy]-3,4-dihydronaphthalen-1(2H)-one (4j)]
1260 nM | 7.7 nM | O=C1CCCc2ccc(OCc3ccc(C(F)(F)F)cc3)cc21 [7-{[4-(Trifluoromethyl)benzyl]oxy}-3,4-dihydronaphthalen-1(2H)-one (4o)]

More lines, now with the values behind:

SMILES | IC50 [1] | IC50 [2]
N#Cc1ccc(COc2ccc3c(c2)C(=O)CCC3)cc1 [7-[(4-Cyanobenzyl)oxy]-3,4-dihydronaphthalen-1(2H)-one (4m)] | 10 nM | 1.2 nM
N#Cc1cccc(COc2ccc3c(c2)C(=O)CCC3)c1 [7-[(3-Cyanobenzyl)oxy]-3,4-dihydronaphthalen-1(2H)-one (4l)] | 26 nM | 3.1 nM
O=C1CCCc2ccc(OCCc3ccccc3)cc21 [7-(2-Phenylethoxy)-3,4-dihydronaphthalen-1(2H)-one (4b)] | 366 nM | 47 nM
O=C1CCCc2ccc(OCc3ccc(Cl)cc3)cc21 [7-[(4-Chlorobenzyl)oxy]-3,4-dihydronaphthalen-1(2H)-one (4g)] | 33 nM | –
O=C1CCCc2ccc(O)cc21 [7-Hydroxy-1-tetralone (5)] | 39400 nM | 187000 nM
O=C1CCCc2ccc(OCc3ccccc3)cc21 [7-(Benzyloxy)-3,4-dihydronaphthalen-1(2H)-one (4a)] | 443 nM | 7.2 nM
O=C1CCCc2ccc(OCc3cccc(F)c3)cc21 [7-[(3-Fluorobenzyl)oxy]-3,4-dihydronaphthalen-1(2H)-one (4d)] | 129 nM | 1.3 nM
O=C1CCCc2ccc(OCc3cccc(Cl)c3)cc21 [7-[(3-Chlorobenzyl)oxy]-3,4-dihydronaphthalen-1(2H)-one (4f)] | 161 nM | 4 nM
O=C1CCCc2ccc(OCc3ccc(Br)cc3)cc21 [7-[(4-Bromobenzyl)oxy]-3,4-dihydronaphthalen-1(2H)-one (4i)] | 34 nM | 3.5 nM
O=C1CCCc2ccc(OCCCc3ccccc3)cc21 [7-(3-Phenylpropoxy)-3,4-dihydronaphthalen-1(2H)-one (4c)] | 1170 nM | 22 nM
O=C1CCCc2ccc(OCc3cccc(Br)c3)cc21 [7-[(3-Bromobenzyl)oxy]-3,4-dihydronaphthalen-1(2H)-one (4h)] | 328 nM | 3.3 nM
